From US11510913B1, “Modulating expression level of a gene encoding an apurinic/apyrimidinic endodeoxyribonuclease protein by treating a human subject with a nitroxide” (priority 2021, dated 2022)

Columns and labels:
[1] = test system: APEX1; test: Treating human subjects with Tempol, serum level of APEX1 following treatment; format: in vivo; details: 2000 mg per day for 180 days
Experimental: (§1) A 70-kilogram human subject over the age of 65 is identified as having, or known to have, or suspected of having an increased expression level of APEX1. The human subject is administered a dose of 2000 mg of Tempol (or another nitroxide antioxidant) per day for 180 days. This may be administered in a single dose, or may be administered as a number of smaller doses over a 24-hour period: for example, four 500-mg doses at […]. Following treatment, the serum level of APEX1, is decreased.
as §1, with “subject” for “subject over the age of 65”
as §1, with “65 and having a cardiovascular disease” for “65”, “for an increased expression level of APEX1. Or a 70-kilogram human subject over the age of 65 is” for “as having, or”, “have a cardiovascular disease and/or” for “have, or suspected of having an”
as §1, with “at risk” for “over the age”, “developing colorectal cancer” for “65”, “for increased expression level of APEX1. Or a 70-kilogram human subject is” for “as having, or”, “be at risk” for “have, or suspected”, “developing colorectal cancer and/or have” for “having an”
(§2) A 70-kilogram human subject at risk of developing an autoimmune disease (e.g., rheumatoid arthritis) is identified for increased expression level of APEX1. Or a 70-kilogram human subject is known to be at risk of developing an autoimmune disease and/or have increased expression level of APEX1. The human subject is administered a dose of 2000 mg of Tempol (or another nitroxide antioxidant) per day for 180 days. This may be administered in a single dose, or may be administered as a number of smaller doses over a 24-hour period: for example, four 500-mg doses at […]. Following treatment, the serum level of APEX1, is decreased.
as §1, with “The” for “A 70-kilogram human subject over the age of 65 is identified as having, or known to have, or suspected of having an increased expression level of APEX1. The”
as §2, with “a neurodegenerative” for “an autoimmune”, “Parkinson's Disease)” for “rheumatoid arthritis)”, “decreased. […]” for “decreased.”

[2] = test system: APEX1; test: Effects of Tempol on gene expression in cardiac tissue of mice, chip-based microarray; format: in vivo
Experimental: To assess the effects of Tempol on gene expression, Tempol was administered to experimental mice at a dose of 5 mg/g of food from 14 months to 31 months after birth. Mice receiving the same food without the addition of Tempol were used as a negative control. At the age of 31 months, the experimental animals were sacrificed and the hearts were surgically removed. The expression of a broad spectrum of genes in the cardiac tissue was assessed using chip-based microarray technology. Such chips are well known in the art and are widely used to assess gene expression.

SMILES: CC1(C)CC(O)CC(C)(C)N1[O] [Tempol, 4-hydroxy-2,2,6,6-tetramethylpiperidine-1-oxyl]
- serum level of APEX1 ([1]; Example 2: 70-kilogram human subject over the age of 65 with increased expression level of APEX1): decreased
- serum level of APEX1 ([1]; Example 3: 70-kilogram human subject with increased expression level of APEX1): decreased
- serum level of APEX1 ([1]; Example 4: human subject over the age of 65 having a cardiovascular disease): decreased
- serum level of APEX1 ([1]; Example 5: human subject at risk of developing colorectal cancer): decreased
- serum level of APEX1 ([1]; Example 6: human subject at risk of developing an autoimmune disease (e.g., rheumatoid arthritis)): decreased
- serum level of APEX1 ([1]; Example 7: human subject at risk of developing a condition due to aging): decreased
- serum level of APEX1 ([1]; Example 8: human subject at risk of developing a neurodegenerative disease (e.g., Parkinson's Disease)): decreased
- serum level of APEX1 ([1]; Example 9: human subject having an infection (e.g., bacterial, fungal, or viral)): decreased
- Fold change (APEX1 expression) ([2]; Tempol 5 mg/g of food from 14 months to 31 months after birth, cardiac tissue at 31 months, vs mice on same food without Tempol): −1.23
- expression of APEX1 in the cardiac tissue ([2]; Tempol 5 mg/g of food from 14 to 31 months after birth, microarray): statistically significant decrease in expression
